Experimental data as given in the METLIN SMRT retention time set (Domingo-Almenara et al. 2019).

Test: gradient 5% acetonitrile 3 min, to 50% in 2 min, to 85% in 15 min, held 3 min, 100 µL/min
Details: column: Zorbax Extend-C18 2.1 x 50 mm; eluents: water / acetonitrile, 0.1% formic acid
In short: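 Values are retention times taken from adduct peaks that software picked and an analyst inspected. The pure standards were run as mixtures of ~100 molecules on HPLC linked to a quadrupole time-of-flight mass spectrometer, in positive and negative ionization mode. A Zorbax Extend-C18 column (2.1 × 50 mm, 1.8 μm) was used at 100 μL/min with water and acetonitrile, each including 0.1% formic acid.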

Compared with CC(Oc1cc(O)c2c(=O)cc(-c3ccccc3)oc2c1)C(=O)c1ccccc1 (configuration not stated), O=C(Nc1ccccc1F)Nc1c(-c2ccccc2)nc2ccccn12 is lower in RP-LC retention time: 1210 s for the first, 666 s for the second.

Compared with CCc1nnc(C2CN(C)CC23CCN(S(=O)(=O)c2cccc(Cl)c2)CC3)o1 (configuration not stated), O=S(=O)(c1cccc(F)c1)N1CCC(Cc2nncn2-c2ccccc2)C1 (configuration not stated) is higher in RP-LC retention time: 645 s for the first, 752 s for the second.

First: COc1cccc(-c2cc(C(=O)N3CCC(NC(=O)c4cccc(Cl)c4)CC3)[nH]n2)c1
Second: COc1cccc(Cn2nc(-c3nc(-c4cccc(Cl)c4)no3)ccc2=O)c1
The RP-LC retention time of the first is lower: 740 s for the first, 1180 s for the second.

Compared with O=C(Cc1cccs1)Nc1c(C(=O)N2CCN(c3ccccn3)CC2)oc2ccccc12, O=C(c1ccsc1)N1CCN(c2ccccn2)CC1 is lower in RP-LC retention time: 675 s for the first, 521 s for the second.

First: CCc1cccc(NC(=O)C2CCCN(C(=O)C3Sc4ccccc4NC3=O)C2)c1 (configuration not stated)
Second: CC(=O)Nc1cccc(N2CC(C(=O)Nc3cccc(C(F)(F)F)c3)CC2=O)c1 (configuration not stated)
The RP-LC retention time of the first is higher: 818 s for the first, 775 s for the second.

Going from COc1ccc(Cl)cc1NC(=O)Cn1ncc2c(c1=O)N(CC1CC1)C(=O)CS2 to CCOC(=O)c1cc(C2CC2)nc2c1c(=O)n(Cc1ccc(C)cc1)c(=O)n2C, the RP-LC retention time rises from 878 s to 1260 s.

Going from CCCCn1c(=O)c2ccccc2n(Cc2nc(-c3ccccc3Br)no2)c1=O to CCNC(=O)Cn1c(=O)c2cnc(-c3ccccc3)nc2n(CC)c1=O, the RP-LC retention time falls from 1170 s to 802 s.

Going from Cc1ccc(-n2nc(N3CCN(C(=O)Nc4ccccc4C)CC3)ccc2=O)cc1 to CCn1c(=O)c(-c2noc(C(=O)N3CCN(c4ccccn4)CC3)n2)nn(-c2ccc(F)cc2)c1=O, the RP-LC retention time falls from 787 s to 676 s.

First: CCN1CCCCc2cc(C(=O)N(C)CCN(C)C)sc21
Second: CCC(CC)C(=O)N1CCCC(c2nc(CNC(=O)C3CCC3)cs2)C1 (configuration not stated)
The RP-LC retention time of the first is lower: 638 s for the first, 777 s for the second.

First: CCc1noc(-c2nc(-c3cc(OC)c(OC)c(OC)c3)no2)n1
Second: COc1cc(C(=O)Nc2nc(-c3ccc(F)cc3)cs2)cc(OC)c1OC
The RP-LC retention time of the first is lower: 892 s for the first, 1040 s for the second.

First: CCOc1ccc(OCC)c(NC(=O)CSc2nccnc2Oc2ccccc2)c1
Second: CCc1ccccc1NC(=O)CSc1nnc2c3cc(-c4ccc(C)cc4)nn3ccn12
The RP-LC retention time of the first is higher: 1190 s for the first, 989 s for the second.

First: CCN(CC)CCNC(=O)c1sc(COc2ccccc2)nc1C
Second: CN(C)CCNc1oc(-c2ccc(COc3ccccc3)o2)nc1C#N
The RP-LC retention time of the first is lower: 638 s for the first, 684 s for the second.

Compared with COc1cc2nc(SCC(=O)Nc3cc(C)[nH]n3)n3nc(C)nc3c2cc1OC, COc1ccc(-c2cn3c(CC(=O)NCc4cc(OC)c(OC)c(OC)c4)csc3n2)cc1OC is higher in RP-LC retention time: 605 s for the first, 652 s for the second.

Compared with CCN1CCC2(CC1)OC(=O)C(C)=C2C(=O)NCC(C)c1ccccc1 (configuration not stated), CCc1cc(=O)n(CC(=O)Nc2ccccc2F)c(N2CCOCC2)n1 is higher in RP-LC retention time: 630 s for the first, 711 s for the second.

First: Cc1ccc(-c2noc(-c3cccn4c(=O)n(Cc5ccc6c(c5)OCO6)nc34)n2)cc1
Second: O=C(Cn1cccc(-c2nc(-c3ccc(F)cc3)no2)c1=O)Nc1ccc(F)cc1
The RP-LC retention time of the first is higher: 1010 s for the first, 878 s for the second.

Compared with Cn1c(=O)c(=O)n(C)c2cc(NC(=O)c3cccs3)ccc21, O=C(c1cccs1)N1CCCC1c1ccc(F)cc1 (configuration not stated) is higher in RP-LC retention time: 653 s for the first, 910 s for the second.

Going from COC(=O)c1ncn2c1C(=O)N(Cc1ccccc1F)C(C)(C(=O)NCc1ccc(C)cc1)C2 (configuration not stated) to COC(=O)c1ncn2c1C(=O)N(Cc1ccccc1)C(C)(C(=O)NC1CCCCC1)C2 (configuration not stated), the RP-LC retention time falls from 772 s to 750 s.

First: O=C(CSc1ccncc1)N1CC2CN(S(=O)(=O)c3cccc(F)c3)CC(C1)O2
Second: CC1Oc2ccc(S(=O)(=O)N3CCC(C(=O)NCc4ccc(F)cc4)CC3)cc2NC1=O (configuration not stated)
The RP-LC retention time of the first is lower: 600 s for the first, 812 s for the second.

Going from Cc1ccccc1C(=O)CC1(O)C(=O)Nc2ccccc21 (configuration not stated) to CCN(C(=O)c1ccccc1C)c1nc(-c2ccccc2)cs1, the RP-LC retention time rises from 709 s to 1260 s.

First: Cc1ccc(S(=O)(=O)C2=C(O)C(=O)N(Cc3ccco3)C2c2ccc(Cl)cc2)cc1 (configuration not stated)
Second: COc1ccc(S(=O)(=O)CCC(=O)N2CCCC2c2nc(-c3ccc(Cl)cc3)no2)cc1 (configuration not stated)
The RP-LC retention time of the first is lower: 982 s for the first, 1000 s for the second.

Compared with Cc1csc(-c2ccc(N3CCN(C(=O)c4cccc(F)c4)CC3)nc2)n1, CCc1ccc(S(=O)(=O)c2cnc(N3CCN(c4cccc(C)c4)CC3)nc2N)cc1 is higher in RP-LC retention time: 822 s for the first, 1220 s for the second.

First: CCCCCCC(=O)Nc1nc(-c2ccc(Cl)cc2)cs1
Second: COC(=O)c1ccc(-c2csc(NC(=O)c3c(F)cccc3Cl)n2)cc1
The RP-LC retention time of the first is higher: 1270 s for the first, 945 s for the second.

Going from O=C(COc1ccccc1)N1CCN(C(=O)c2nnn3c2COC(c2ccc(Cl)cc2)C3)CC1 (configuration not stated) to O=C(c1nnn2c1COC(c1ccc(Cl)cc1)C2)N1CCN(C(=O)c2c(F)cccc2F)CC1 (configuration not stated), the RP-LC retention time rises from 922 s to 951 s.

First: Cc1cc(C)cc(NC(=O)NCCn2nnc3cc(C(=O)N4CCCC4)ccc32)c1
Second: Cc1ccc(CNC(=O)C2(C)CCCN(C(=O)Nc3cc(C)cc(C)c3)C2)cc1 (configuration not stated)
The RP-LC retention time of the first is lower: 702 s for the first, 912 s for the second.

Going from COc1cc2c(cc1OC)C(C(=O)NCCN(C)C)C(c1ccccc1F)N(C)C2=O (configuration not stated) to COCCNc1c(-c2cccc(OC)c2)nc2sc(C(=O)N(C)C)c(C)n12, the RP-LC retention time rises from 599 s to 698 s.

First: CCc1nc(-c2csc(S(=O)(=O)N3CCCC(C(=O)NC4CCC(C)CC4)C3)c2)no1 (configuration not stated)
Second: Cc1nc(-c2csc(S(=O)(=O)N3CCC(C(=O)NCCc4cccs4)CC3)c2)no1
The RP-LC retention time of the first is higher: 1100 s for the first, 860 s for the second.

Compared with COC(=O)c1ccc(Cl)cc1NC(=O)N1CCN(C)c2ccccc21, O=C(NCC1CCN(C(=O)Oc2ccccc2)CC1)Nc1ccccc1Cl is lower in RP-LC retention time: 1240 s for the first, 881 s for the second.

Compared with Cc1ccc(S(=O)(=O)c2cnc(N3CCC(C(N)=O)(N4CCCCC4)CC3)nc2N)cc1, COc1ccc(-c2nnc(N3CCC(C(=O)NCCN4CCCC4)CC3)o2)cc1 is lower in RP-LC retention time: 613 s for the first, 590 s for the second.

First: O=C(Nc1cccc(Br)c1)N1CCC(n2cnnc2C2CC2)C1 (configuration not stated)
Second: COc1ccc(NC(=O)N2CCC(n3cnc4cccnc43)CC2)cc1OC
The RP-LC retention time of the first is higher: 668 s for the first, 581 s for the second.

Compared with CCCc1nc(NCc2ccc3c(c2)OCO3)ncc1C(=O)O, COc1ccc(CNC(=O)c2cn(-c3cc(N(C)C)ncn3)cn2)cc1 is lower in RP-LC retention time: 791 s for the first, 743 s for the second.

Compared with Cc1cc(C)cc(NC(=O)N2CCC(n3cnc4ccccc4c3=O)CC2)c1, Cc1cc(NC(=O)N2CCCC(Cn3cnc4cccnc43)C2)ccc1Br (configuration not stated) is lower in RP-LC retention time: 809 s for the first, 784 s for the second.

Compared with O=C(NCC1CCCO1)c1nc(-c2ccnc(N3CCCCC3)c2)no1 (configuration not stated), CCN(CC)S(=O)(=O)c1ccc2c(c1)N(CC(=O)N1CCCCC1)C(=O)C1CCCCN21 (configuration not stated) is higher in RP-LC retention time: 654 s for the first, 905 s for the second.

First: CN1CCC(N2CCN(S(=O)(=O)c3ccccc3F)CC2)C1=O (configuration not stated)
Second: CC(=O)N(Cc1nn(C)c2c1CN(S(=O)(=O)c1ccc(F)cc1F)CC2)c1ccccc1
The RP-LC retention time of the first is lower: 545 s for the first, 808 s for the second.

Compared with O=C(NCCc1cccs1)C1CCCN(c2ncnc3c2oc2ccccc23)C1 (configuration not stated), COc1ccc(CNC(=O)C2CCCN(c3ncnc4c3oc3ccccc34)C2)c(OC)c1 (configuration not stated) is lower in RP-LC retention time: 764 s for the first, 754 s for the second.

Compared with Cc1ccccc1Oc1nccn2c(=O)n(CC(=O)Nc3c(C)cccc3C)nc12, Cc1cc2c(=O)n(CC(=O)Nc3cc(F)ccc3F)ccc2s1 is lower in RP-LC retention time: 838 s for the first, 817 s for the second.

First: COc1ccc(OC)c(S(=O)(=O)N2CCCN(S(=O)(=O)c3ccccc3)CCC(=O)NCC2)c1
Second: Cn1nc(-c2nnc(-c3ccccc3)o2)c2c1CCN(S(=O)(=O)c1ccc(C(C)(C)C)cc1)C2
The RP-LC retention time of the first is lower: 793 s for the first, 1150 s for the second.

First: C=CCn1nnc(NCc2ccc(-c3cccc(Cl)c3C)o2)n1
Second: CC(C)CN(CC(C)C)c1nc(-c2ccc(C(C)(C)C)cc2)nc2ccccc12
The RP-LC retention time of the first is lower: 1090 s for the first, 1240 s for the second.

First: CN(c1cccc(C(F)(F)F)c1)S(=O)(=O)c1cc2n(c1)CCCNC2=O
Second: O=C(O)c1cn(Cc2cccc(F)c2)c(=O)c2ccccc12
The RP-LC retention time of the first is lower: 759 s for the first, 822 s for the second.

Going from COc1cc(NC(=O)CN2C(=O)CCc3cc(Br)ccc32)cc(OC)c1 to CCOC(=O)Cn1c(C2CC(=O)N(c3ccc(OC)cc3)C2)nc2ccccc21 (configuration not stated), the RP-LC retention time falls from 898 s to 762 s.

Compared with COc1ccc(-c2ncc3c(n2)CCN(C(=O)c2ccc(C)c(C)c2)C3)cc1, COc1ccc(-c2ncc3c(n2)CCN(C(=O)Nc2cc(C)ccc2C)C3)cc1 is lower in RP-LC retention time: 1030 s for the first, 660 s for the second.

Compared with Cc1nc(C)c(C(=O)N2CC[C@H](CO)[C@H](NC(=O)C3CC3)C2)s1, COc1ccc(C(=O)N2CCc3c(c(C(=O)N4CCCC(C(=O)NC5CC5)C4)nn3C)C2)c(OC)c1 (configuration not stated) is higher in RP-LC retention time: 573 s for the first, 638 s for the second.

Going from CCn1ccc(C(=O)NCC2Cn3cccc3C(=O)N2C)n1 (configuration not stated) to CCCNC(=O)C1CCCN(c2ccc(SCC(=O)Nc3ccc(Br)cc3)nn2)C1 (configuration not stated), the RP-LC retention time rises from 596 s to 710 s.

First: CCOc1ccc(NC(=O)Cn2cnc3nc(N4CCCC(C(=O)NC(C)C)C4)sc3c2=O)cc1 (configuration not stated)
Second: COCc1cn(CC2CCCN(Cc3cn(C)c4ccc(OC)cc34)C2)nn1 (configuration not stated)
The RP-LC retention time of the first is higher: 698 s for the first, 600 s for the second.

CNC(=O)[C@@H]1C[C@H](Oc2ccccc2)CN1C(=O)c1ccco1 gave an RP-LC retention time of 670 s.
